# Read-outs that look alike come from different tables or passages of the source.
# Key:
# [1] = target: adenosine receptors (rat striatal membranes, [3H]-CGS21680) (Rattus norvegicus, UniProt P30543); assay: Ki from displacement of [3H]-CGS21680 in rat striatal membranes at pH 5.5 and pH 7.4; format: binding; parameters: from tissue; host or cells: rat striatum (membranes); settings: 2 nM [3H]-CGS21680, 90 minutes at 22° C.
# [2] = system: chronic constriction injury model of neuropathic pain; assay: static allodynia, chronic constriction injury of the rat sciatic nerve; format: in vivo; settings: rat CCI, p.o., dose response
# Source text: The total dose administered is shown on the horizontal axis, and the paw withdrawal threshold (PWT) on the vertical axis.
# [3] = pH 5.5, read-out: (Ki) nM (pH 5.5)
# [4] = pH 7.4, read-out: (Ki) nM (pH 7.4)
# Chain of adenosine receptors (rat striatal membranes, [3H]-CGS21680) (P30543 whole entry): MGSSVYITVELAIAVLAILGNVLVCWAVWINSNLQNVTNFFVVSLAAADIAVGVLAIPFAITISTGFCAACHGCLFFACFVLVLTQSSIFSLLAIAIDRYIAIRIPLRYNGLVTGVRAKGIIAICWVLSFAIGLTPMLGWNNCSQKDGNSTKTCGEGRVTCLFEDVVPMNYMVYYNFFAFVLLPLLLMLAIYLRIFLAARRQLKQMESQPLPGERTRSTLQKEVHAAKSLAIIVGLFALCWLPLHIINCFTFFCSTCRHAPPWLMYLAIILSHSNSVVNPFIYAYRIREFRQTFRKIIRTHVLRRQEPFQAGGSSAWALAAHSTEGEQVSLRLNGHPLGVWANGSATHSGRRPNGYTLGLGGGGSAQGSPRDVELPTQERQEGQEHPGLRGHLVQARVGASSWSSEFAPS
Structure (SMILES),"Ki [1, 3] [nM]","Ki [1, 4] [nM]","Ki ([1]; (Ki) nM (pH 5.5), pH 5.5) [nM]","Ki ([1]; (Ki) nM (pH 7.4), pH 7.4) [nM]",inhibition of static allodynia (paw withdrawal threshold) [2]
Nc1nc(OCC(F)F)nc2c1ncn2[C@@H]1O[C@H](CO)[C@@H](O)[C@H]1O [Compound 2],17,780,–,–,–
Nc1nc(OCC2CC2)nc2c1ncn2[C@@H]1O[C@H](CO)[C@@H](O)[C@H]1O [Compound 3],39,670,–,–,–
CCCCOc1nc(N)c2ncn([C@@H]3O[C@H](CO)[C@@H](O)[C@H]3O)c2n1 [Compound 4],11,280,–,–,–
CCCCCCOc1nc(N)c2ncn([C@@H]3O[C@H](CO)[C@@H](O)[C@H]3O)c2n1 [Compound 5],3,1500,–,–,–
"Nc1nc(Oc2ccccc2)nc2c1ncn2[C@@H]1O[C@H](CO)[C@@H](O)[C@H]1O [Compound 6, 2-phenoxyadenosine]",71,2500,–,–,–
N#Cc1ccc(Oc2nc(N)c3ncn([C@@H]4O[C@H](CO)[C@@H](O)[C@H]4O)c3n2)cc1 [Compound 7],4,1300,–,–,–
Nc1nc(Oc2cccc(-c3ccccc3)c2)nc2c1ncn2[C@@H]1O[C@H](CO)[C@@H](O)[C@H]1O [Compound 8],0.7,620,–,–,–
Nc1nc(Oc2cc(F)ccc2F)nc2c1ncn2[C@@H]1O[C@H](CO)[C@@H](O)[C@H]1O [Compound 9],16,2500,–,–,–
Nc1nc(Oc2ccc(F)cc2F)nc2c1ncn2[C@@H]1O[C@H](CO)[C@@H](O)[C@H]1O [Compound 10],16,6400,–,–,–
Nc1nc(Oc2ccc(F)c(F)c2)nc2c1ncn2[C@@H]1O[C@H](CO)[C@@H](O)[C@H]1O [Compound 11],63,3300,–,–,–
Nc1nc(Oc2cc(F)cc(F)c2F)nc2c1ncn2[C@@H]1O[C@H](CO)[C@@H](O)[C@H]1O [Compound 12],46,5900,–,–,–
Cc1cc(Oc2nc(N)c3ncn([C@@H]4O[C@H](CO)[C@@H](O)[C@H]4O)c3n2)ccc1F [Compound 13],43,3100,–,–,–
Cc1ccccc1Oc1nc(N)c2ncn([C@@H]3O[C@H](CO)[C@@H](O)[C@H]3O)c2n1 [Compound 14],–,22000,–,–,–
Nc1nc(Oc2cccc(Br)c2)nc2c1ncn2[C@@H]1O[C@H](CO)[C@@H](O)[C@H]1O [Compound 15],35,590,–,–,–
Cc1ccc(Oc2nc(N)c3ncn([C@@H]4O[C@H](CO)[C@@H](O)[C@H]4O)c3n2)cc1 [Compound 16],3.4,720,–,–,–
Nc1nc(Oc2ccc3c(c2)CCC3)nc2c1ncn2[C@@H]1O[C@H](CO)[C@@H](O)[C@H]1O [Compound 17],12,760,–,–,–
CC(C)c1cccc(Oc2nc(N)c3ncn([C@@H]4O[C@H](CO)[C@@H](O)[C@H]4O)c3n2)c1 [Compound 18],16,560,–,–,–
CNc1nc(N)c2ncn([C@@H]3O[C@H](CO)[C@@H](O)[C@H]3O)c2n1 [Compound 19],–,1360,–,–,–
CN(C)c1nc(N)c2ncn([C@@H]3O[C@H](CO)[C@@H](O)[C@H]3O)c2n1 [Compound 21],–,13300,–,–,–

Structure (SMILES),"Ki [1, 3] [nM]","Ki [1, 4] [nM]","Ki ([1]; (Ki) nM (pH 5.5), pH 5.5) [nM]","Ki ([1]; (Ki) nM (pH 7.4), pH 7.4) [nM]",inhibition of static allodynia (paw withdrawal threshold) [2]
CC[C@@H](C)Nc1nc(N)c2ncn(C3OC(CO)C(O)C3O)c2n1 (some centres unmarked) [Compound 22],33,510,–,–,–
CC[C@H](C)Nc1nc(N)c2ncn(C3OC(CO)C(O)C3O)c2n1 (some centres unmarked) [Compound 23],29,1400,–,–,–
CCCCCCNc1nc(N)c2ncn([C@@H]3O[C@H](CO)[C@@H](O)[C@H]3O)c2n1 [Compound 24],0.7,290,–,–,–
Nc1nc(NC2CC3CCC2C3)nc2c1ncn2[C@@H]1O[C@H](CO)[C@@H](O)[C@H]1O (some centres unmarked) [Compound 25],5.5,120,–,–,–
"Nc1nc(Nc2ccccc2)nc2c1ncn2[C@@H]1O[C@H](CO)[C@@H](O)[C@H]1O [Compound 26, 2-phenylamino adenosine]",5,160,–,–,–
"COc1ccc(Nc2nc(N)c3ncn([C@@H]4O[C@H](CO)[C@@H](O)[C@H]4O)c3n2)cc1 [Compound 27, 2-(4-methoxyphenylamino) adenosine]",3,55,–,–,–
Nc1nc(Nc2ccc(F)cc2)nc2c1ncn2[C@@H]1O[C@H](CO)[C@@H](O)[C@H]1O [Compound 28],10,200,–,–,–
Nc1nc(NC2CCCC2)nc2c1ncn2[C@@H]1O[C@H](CO)[C@@H](O)[C@H]1O [Compound 29],2,420,–,–,–
"Nc1nc(NC2CCCCC2)nc2c1ncn2[C@@H]1O[C@H](CO)[C@@H](O)[C@H]1O [Compound 30, 2-cyclohexylamino adenosine]",0.4,1000,–,–,–
CC(C)CCN(C)c1nc(N)c2ncn([C@@H]3O[C@H](CO)[C@@H](O)[C@H]3O)c2n1 [Compound 31],26,4000,–,–,–
Nc1nc(OCC2CCCC2)nc2c1ncn2[C@@H]1O[C@H](CO)[C@@H](O)[C@H]1O [Compound 32],0.2,200,–,–,–
CCS(=O)(=O)c1nc(N)c2ncn([C@@H]3O[C@H](CO)[C@@H](O)[C@H]3O)c2n1 [Compound 33],100,39000,–,–,–
"Nc1nc(OCCO)nc2c1ncn2[C@@H]1O[C@H](CO)[C@@H](O)[C@H]1O [Compound 34, 2-(β-hydroxyethoxy)-adenosine]",4,203,–,–,–
Nc1nc(OC2CC(F)(F)C2(F)F)nc2c1ncn2[C@@H]1O[C@H](CO)[C@@H](O)[C@H]1O (some centres unmarked) [Compound 35],11,220,–,–,–
N#Cc1nc(N)c2ncn([C@@H]3O[C@H](CO)[C@@H](O)[C@H]3O)c2n1 [Compound 38],25,175,–,–,–
NC(=O)c1nc(N)c2ncn([C@@H]3O[C@H](CO)[C@@H](O)[C@H]3O)c2n1 [Compound 39],23,610,–,–,–
CN(C)c1ncnc2c1ncn2[C@@H]1O[C@H](CO)[C@@H](O)[C@H]1O [Compound 41],–,–,42,450000,–
CC(C)=CCNc1ncnc2c1ncn2[C@@H]1O[C@H](CO)[C@@H](O)[C@H]1O [Compound 42],–,–,91.5,8600,–
CN(Cc1ccccc1)c1ncnc2c1ncn2[C@@H]1O[C@H](CO)[C@@H](O)[C@H]1O [Compound 43],7,18500,–,–,–

Structure (SMILES),"Ki [1, 3] [nM]","Ki [1, 4] [nM]","Ki ([1]; (Ki) nM (pH 5.5), pH 5.5) [nM]","Ki ([1]; (Ki) nM (pH 7.4), pH 7.4) [nM]",inhibition of static allodynia (paw withdrawal threshold) [2]
CN(Cc1cccc(Br)c1)c1ncnc2c1ncn2[C@@H]1O[C@H](CO)[C@@H](O)[C@H]1O [Compound 44],29,7500,–,–,–
CN(Cc1cccc(C(F)(F)F)c1)c1ncnc2c1ncn2[C@@H]1O[C@H](CO)[C@@H](O)[C@H]1O [Compound 45],3.8,20000,–,–,–
OC[C@H]1O[C@@H](n2cnc3c(N4CCNCC4)ncnc32)[C@H](O)[C@@H]1O [Compound 46],38,5000,–,–,–
COCCN(C)c1ncnc2c1ncn2[C@@H]1O[C@H](CO)[C@@H](O)[C@H]1O [Compound 47],13,13000,–,–,–
OC[C@H]1O[C@@H](n2cnc3c(OCC4CCCC4)ncnc32)[C@H](O)[C@@H]1O [Compound 48],140,21000,–,–,–
CC(C)NC(=O)[C@H]1O[C@@H](n2cnc3c(N)ncnc32)[C@H](O)[C@@H]1O [Compound 49],5,1930,–,–,–
NC(=O)[C@H]1O[C@@H](n2cnc3c(N)ncnc32)[C@H](O)[C@@H]1O [Compound 50],9,270,–,–,–
CNc1ncnc2c1ncn2[C@@H]1O[C@H](C(=O)NC(C)C)[C@@H](O)[C@H]1O [Compound 51],188,2440,–,–,–
CC(C)CCNc1ncnc2c1ncn2[C@@H]1O[C@H](C(=O)NC(C)C)[C@@H](O)[C@H]1O [Compound 52],39,1300,–,–,–
COc1nc(N)c2ncn([C@@H]3O[C@H](C(=O)Nc4ccccc4)[C@@H](O)[C@H]3O)c2n1 [Compound 53],230,26100,–,–,–
CCCCCCNc1nc(N)c2ncn([C@@H]3O[C@H](C(=O)NCCCC)[C@@H](O)[C@H]3O)c2n1 [Compound 54],0.3,540,–,–,–
CCCC(=O)NC[C@H]1O[C@@H](n2cnc3c(N)ncnc32)[C@H](O)[C@@H]1O [Compound 55],145,16900,–,–,–
CCNC(=O)NC[C@H]1O[C@@H](n2cnc3c(N)ncnc32)[C@H](O)[C@@H]1O [Compound 56],40,6570,–,–,–
CN(C)c1nc(NC2CCCCC2)nc2c1ncn2[C@@H]1O[C@H](CO)[C@@H](O)[C@H]1O [Compound 57],2.6,18000,–,–,–
COc1nc(NCc2ccccc2)c2ncn([C@@H]3O[C@H](CO)[C@@H](O)[C@H]3O)c2n1 [Compound 58],4.5,6100,–,–,–
Cc1nc2c(N)nc(NC3CCCCC3)nc2n1[C@@H]1O[C@H](CO)[C@@H](O)[C@H]1O [Compound 59],31,3900,–,–,–
Cc1nc2c(N)nc(NC3CCCC3)nc2n1[C@@H]1O[C@H](CO)[C@@H](O)[C@H]1O [Compound 60],49,2400,–,–,–
CCCCCCNc1nc(N)c2nc(C)n([C@@H]3O[C@H](CO)[C@@H](O)[C@H]3O)c2n1 [Compound 61],130,4800,–,–,–
"NCC1(CC(=O)O)CCCCC1 [gabapentin, reference compound]",–,–,–,–,inhibit static allodynia

# Source: patent US20080221060A1, “Therapeutic Compounds” (priority 2004, published 2008)
